Results: the NIST ThermoML archive (doi:10.1021/je900346t)
Numbers after ± are expanded uncertainties.

What was measured:
[1] = Crystal; DTA
[2] = Molar enthalpy of transition or fusion; settings: Crystal; DSC

Normal melting temperature [1]: 49.20 ± 1.1 °C | Molar enthalpy of transition or fusion [2]: 9.1 ± 0.196 kcal/mol
SMILES: CCCCCCCCCCCCCCCc1cccc(O)c1 [3-pentadecylphenol]
